According to patent publication US12617769B2, “Chemical compound as thyroid hormone beta receptor agonist and use thereof” (SUNSHINE LAKE PHARMA CO., LTD., priority 2019, dated 2026):

Columns and labels:
TRβ = target: T1, TRβ (Homo sapiens, UniProt P10828); experiment: In vitro binding activity, LanthaScreen TR-FRET Thyroid Receptor beta Coactivator Assay; conditions: TRβ-LBD
T1 construct: Then 5 μL of 4×TRα-LBD or TRP-LBD; purchased Invitrogen PV4686
T1 sequence (P10828 217-461 limits assumed): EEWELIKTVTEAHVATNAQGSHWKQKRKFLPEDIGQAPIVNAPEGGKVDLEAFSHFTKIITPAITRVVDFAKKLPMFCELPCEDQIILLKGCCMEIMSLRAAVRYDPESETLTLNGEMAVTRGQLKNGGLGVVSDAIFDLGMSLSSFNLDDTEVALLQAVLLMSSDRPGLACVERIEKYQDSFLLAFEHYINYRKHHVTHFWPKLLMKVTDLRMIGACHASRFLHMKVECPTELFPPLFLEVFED
Procedure: (§1) 2. Detection of TRα or TRβ Binding Activity In Vitro of the Compound of the Present Invention
(§2) • LanthaScreen TR-FRET Thyroid Receptor beta Coactivator Assay kit was purchased from Invitrogen, Cat. No. PV4686; • LanthaScreen TR-FRET Thyroid Receptor alfa Coactivator Assay kit was purchased from Invitrogen, Cat. No. PV4687. Test Method:
(§3) This method was tested using LanthaScreen TR-FRET Thyroid Receptor beta/alfa Coactivator Assay kit. The test compound was dissolved in DMSO and diluted three-fold to obtain a total of 10 concentrations, then the compounds were diluted into solutions containing 2% DMSO with TR-FRET Coregulator Buffer C in the kit. 10 μL of the compounds containing 2% DMSO were taken to a 384-well plate. Then 5 μL of 4×TRα-LBD or TRP-LBD and 5 μL of a mixture containing 0.4 μM fluorescein-SRC2-2 and 8 nM Tb anti-GST antibody were added to each well. After mixing well, the compounds were incubated at room temperature in the dark for 1 h. After 1 h, the fluorescence value (RFU) was read at 520 nm and 495 nm using PHERAstar FSX microplate reader from BMG LABTECH. The emission signal at 520 nm was divided by the emission signal at 495 nm to calculate the TR-FRET ratio.

TRα = target: T2, TRα (Homo sapiens, UniProt P10827); experiment: In vitro binding activity, LanthaScreen TR-FRET Thyroid Receptor alfa Coactivator Assay; conditions: TRα-LBD
T2 construct: Then 5 μL of 4×TRα-LBD or TRP-LBD; purchased Invitrogen PV4687
T2 sequence (P10827 163-410 isoform P10827-2 limits assumed, other chains not shown): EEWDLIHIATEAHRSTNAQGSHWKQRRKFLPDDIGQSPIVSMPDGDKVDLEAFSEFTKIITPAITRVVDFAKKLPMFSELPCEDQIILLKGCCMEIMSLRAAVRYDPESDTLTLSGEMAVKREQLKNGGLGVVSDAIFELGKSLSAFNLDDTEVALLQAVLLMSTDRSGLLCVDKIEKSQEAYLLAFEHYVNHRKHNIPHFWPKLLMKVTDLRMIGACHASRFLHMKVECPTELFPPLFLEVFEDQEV
Procedure: as §1, §2, §3

Row | Compound | EC50 (TRβ) | EC50 (TRα)
1 | CC(c1ccccc1)n1nc(Oc2c(Cl)cc(-n3nc(C#N)c(=O)[nH]c3=O)cc2Cl)ccc1=O (centres unmarked) [Example 9, 2-[3,5-dichloro-4-[[6-oxo-1-(1-phenethyl)-1,6-dihydropyridazin-3-yl]oxyl]phenyl]-3,5-dioxo-1,2,4-triazine-6-carbonitrile] | > 10 µM | > 100 µM
2 | N#Cc1nn(-c2cc(Cl)c(Oc3ccc(=O)n(Cc4ccccc4)c3)c(Cl)c2)c(=O)[nH]c1=O [Example 1, 2-[4-[(1-benzyl-6-oxo-1,6-dihydropyridin-3-yl)oxy]-3,5-dichlorophenyl]-3,5-dioxo-1,2,4-triazine-6-carbonitrile] | 0.06 µM | 3.03 µM
3 | N#Cc1nn(-c2cc(Cl)c(Oc3cnc(=O)n(Cc4ccc(F)cc4)c3)c(Cl)c2)c(=O)[nH]c1=O [Example 20, 2-[3,5-dichloro-4-[1-(4-fluorobenzyl)-2-oxo-1,2-dihydropyrimidin-5-yl]oxy-phenyl]-3,5-dioxo-1,2,4-triazine-6-carbonitrile] | 7.37 µM | > 100 µM
4 | CC(C)n1cc(Oc2c(Cl)cc(-n3nc(C#N)c(=O)[nH]c3=O)cc2Cl)ccc1=O [Example 4, 2-[3,5-dichloro-4-[(1-isopropyl-6-oxo-1,6-dihydropyridin-3-yl)oxy]phenyl]-3,5-dioxo-1,2,4-triazine-6-carbonitrile] | 0.5 µM | > 100 µM
5 | Cc1ccc(Cn2cc(Oc3c(Cl)cc(-n4nc(C#N)c(=O)[nH]c4=O)cc3Cl)ccc2=O)cc1 [Example 23, 2-[3,5-dichloro-4-[[1-(4-methylbenzyl)-6-oxo-1,6-dihydropyridin-3-yl]oxy]phenyl]-3,5-dioxo-1,2,4-triazine-6-carbonitrile] | 0.06 µM | 3 µM
6 | N#Cc1nn(-c2cc(Cl)c(Oc3ccc(=O)n(Cc4cccc(C(F)(F)F)c4)c3)c(Cl)c2)c(=O)[nH]c1=O [Example 14, 2-[3,5-dichloro-4-[[6-oxo-1-[3-(trifluoromethyl)benzyl]-1,6-dihydropyridin-3-yl]oxy]phenyl]-3,5-dioxo-1,2,4-triazine-6-carbonitrile] | 0.35 µM | 5.74 µM
7 | COc1cccc(Cn2cc(Oc3c(Cl)cc(-n4nc(C#N)c(=O)[nH]c4=O)cc3Cl)ccc2=O)c1 [Example 22, 2-[3,5-dichloro-4-[[1-[(3-methoxyphenyl)methyl]-6-oxopyridin-3-yl]oxy]phenyl]-3,5-dioxo-1,2,4-triazine-6-carbonitrile] | 0.69 µM | > 100 µM
8 | N#Cc1nn(-c2cc(Cl)c(Oc3ccc(=O)n(-c4ccc(F)cc4)n3)c(Cl)c2)c(=O)[nH]c1=O [Example 8, 2-[3,5-dichloro-4-[1-(4-fluorophenyl)-6-oxo-1,6-dihydropyridazin-3-yl]oxy-phenyl]-3,5-dioxo-1,2,4-triazine-6-carbonitrile] | > 10 µM | > 100 µM
9 | N#Cc1nn(-c2cc(Cl)c(Oc3ccc(=O)n(Cc4ccc(OC(F)(F)F)cc4)c3)c(Cl)c2)c(=O)[nH]c1=O [Example 12, 2-[3,5-dichloro-4[[6-oxo-1-[4-(trifluoromethoxy)benzyl]-1,6-dihydropyridin-3-yl]oxy]phenyl]-3,5-dioxo-1,2,4-triazine-6-carbonitrile] | 1.34 µM | > 100 µM
10 | CCOC(=O)Cn1cc(Oc2c(Cl)cc(-n3nc(C#N)c(=O)[nH]c3=O)cc2Cl)ccc1=O [Example 17, Ethyl 2-[5-[2,6-dichloro-4-(6-cyano-3,5-dioxo-1,2,4-triazin-2-yl)phenoxy]-2-oxy-pyridine-1(2H)-yl] acetate] | 0.35 µM | 15.4 µM
11 | N#Cc1nn(-c2cc(Cl)c(Oc3ccc(=O)n(Cc4ccc(F)c(F)c4)c3)c(Cl)c2)c(=O)[nH]c1=O [Example 11, 2-[3,5-dichloro-4-[[1-(3,4-difluorobenzyl)-6-oxo-1,6-dihydropyridin-3-yl]oxy]phenyl]-3,5-dioxo-1,2,4-triazine-6-carbonitrile] | 0.022 µM | 0.67 µM
12 | N#Cc1nn(-c2cc(Cl)c(Oc3cnc(=O)n(Cc4ccccc4)c3)c(Cl)c2)c(=O)[nH]c1=O [Example 10, 2-[4-(1-benzyl-2-oxo-1,2-dihydropyrimidin-5-yl)oxy-3,5-dichlorophenyl]-3,5-dioxo-1,2,4-triazine-6-carbonitrile] | > 10 µM | > 100 µM
13 | CCOC(=O)Cn1nc(Oc2c(Cl)cc(-n3nc(C#N)c(=O)[nH]c3=O)cc2Cl)ccc1=O [Example 19, Ethyl 2-[3-[2,6-dichloro-4-(6-cyano-3,5-dioxo-1,2,4-triazin-2-yl)phenoxy]-6-oxy-pyridazine-1(6H)-yl] acetate] | > 10 µM | > 100 µM
14 | N#Cc1nn(-c2cc(Cl)c(Oc3ccc(=O)n(Cc4ccc(F)cc4)c3)c(Cl)c2)c(=O)[nH]c1=O [Example 13, 2-[3,5-dichloro-4-[[1-(4-fluorobenzyl)-6-oxo-1,6-dihydropyridin-3-yl]oxy]phenyl]-3,5-dioxo-1,2,4-triazine-6-carbonitrile] | 0.02 µM | 0.6 µM
15 | COCCn1cc(Oc2c(Cl)cc(-n3nc(C#N)c(=O)[nH]c3=O)cc2Cl)ccc1=O [Example 18, 2-[3,5-dichloro-4-[[1-(2-methoxyethyl)-6-oxo-1,6-dihydropyridin-3-yl]oxy]phenyl]-3,5-dioxo-1,2,4-triazine-6-carbonitrile] | 0.086 µM | 1.35 µM

Continued, values first:

Row | EC50 (TRβ) | EC50 (TRα) | Compound
16 | 1.49 µM | > 100 µM | CCOC(=O)c1nn(-c2cc(Cl)c(Oc3ccc(=O)n(Cc4ccccc4)c3)c(Cl)c2)c(=O)[nH]c1=O [Example 27, Ethyl 2-(4-((1-benzyl-6-oxo-1,6-dihydropyridin-3-yl)oxy)-3,5-dichlorophenyl)-3,5-dioxo-1,2,4-triazine-6-carboxylate]
17 | < 0.0046 µM | 0.092 µM | O=c1cnn(-c2cc(Cl)c(Oc3ccc(=O)n(Cc4ccc(F)cc4)c3)c(Cl)c2)c(=O)[nH]1 [Example 36, 2-(3,5-dichloro-4-((1-(4-fluorobenzyl)-6-oxo-1,6-dihydropyridin-3-yl)oxy)phenyl)-1,2,4-triazine-3,5(2H,4H)-dione]
18 | 0.14 µM | 6.66 µM | N#Cc1nn(-c2cc(Cl)c(Oc3ccc(=O)n(CC4CCOCC4)c3)c(Cl)c2)c(=O)[nH]c1=O [Example 25, 2-[3,5-dichloro-4-[[6-oxo-1-((tetrahydropyran-4-yl)methyl)-1,6-dihydropyridin-3-yl]oxy]phenyl]-3,5-dioxo-1,2,4-triazine-6-carbonitrile]
19 | 0.094 µM | 4.4 µM | COc1ccc(Cn2cc(Oc3c(Cl)cc(-n4nc(C#N)c(=O)[nH]c4=O)cc3Cl)ccc2=O)cc1 [Example 31, 2-(3,5-dichloro-4-((1-(4-methoxybenzyl)-6-oxo-1,6-dihydropyridin-3-yl)oxy)phenyl)-3,5-dioxo-2,3,4,5-tetrahydro-1,2,4-triazine-6-carbonitrile]
20 | 0.231 µM | 3.23 µM | O=c1[nH]c(=O)n(-c2cc(Cl)c(Oc3ccc(=O)n(Cc4ccccc4)c3)c(Cl)c2)nc1CO [Example 33, 2-(4-((1-benzyl-6-oxo-1,6-dihydropyridin-3-yl)oxy)-3,5-dichlorophenyl)-6-(hydroxymethyl)-1,2,4-triazine-3,5(2H,4H)-dione]
21 | 0.017 µM | 0.473 µM | N#Cc1nn(-c2cc(Br)c(Oc3ccc(=O)n(Cc4ccccc4)c3)c(Br)c2)c(=O)[nH]c1=O [Example 35, 2-(4-((1-benzyl-6-oxo-1,6-dihydropyridin-3-yl)oxy)-3,5-dibromophenyl)-3,5-dioxo-2,3,4,5-tetrahydro-1,2,4-triazine-6-carbonitrile]
22 | 0.382 µM | > 33.3 µM | N#Cc1nn(-c2cc(Cl)c(Oc3cc(Cl)c(=O)n(Cc4ccccc4)c3)c(Cl)c2)c(=O)[nH]c1=O [Example 38, 2-(4-((1-benzyl-5-chloro-6-oxo-1,6-dihydropyridin-3-yl)oxy)-3,5-dichlorophenyl)-3,5-dioxo-2,3,4,5-tetrahydro-1,2,4-triazine-6-carbonitrile]
23 | 0.245 µM | > 100 µM | Cc1cc(Oc2c(Cl)cc(-n3nc(C#N)c(=O)[nH]c3=O)cc2Cl)cn(Cc2ccccc2)c1=O [Example 37, 2-(4-((1-benzyl-5-methyl-6-oxo-1,6-dihydropyridin-3-yl)oxy)-3,5-dichlorophenyl)-3,5-dioxo-2,3,4,5-tetrahydro-1,2,4-triazine-6-carbonitrile]
24 | 0.02 µM | 0.57 µM | CCOC(=O)C(C)n1cc(Oc2c(Cl)cc(-n3nc(C#N)c(=O)[nH]c3=O)cc2Cl)ccc1=O (centres unmarked) [Example 24, Ethyl 2-(5-(2,6-dichloro-4-(6-cyano-3,5-dioxo-1,2,4-triazin-2-yl)phenoxy)-2-oxypyridine-1(2H)-yl)propionate]
25 | 3.76 µM | > 100 µM | NC(=O)c1nn(-c2cc(Cl)c(Oc3ccc(=O)n(Cc4ccccc4)c3)c(Cl)c2)c(=O)[nH]c1=O [Example 30, 2-(4-((1-benzyl-6-oxo-1,6-dihydropyridin-3-yl)oxy)-3,5-dichlorophenyl)-3,5-dioxo-2,3,4,5-tetrahydro-1,2,4-triazine-6-carboxamide]
